Measurements as given in US20230203041A1, “ANTAGONISTS OF THE ADENOSINE A2A RECEPTOR” (AdoRx Therapeutics Limited, priority 2020, published 2023).

Key:
[1] = target: T1, human Adenosine A1 receptor (Homo sapiens, UniProt P30542); experiment: Adenosine receptor TR-FRET binding assay (CA200645 displacement), A1
T1 sequence (P30542 1-326): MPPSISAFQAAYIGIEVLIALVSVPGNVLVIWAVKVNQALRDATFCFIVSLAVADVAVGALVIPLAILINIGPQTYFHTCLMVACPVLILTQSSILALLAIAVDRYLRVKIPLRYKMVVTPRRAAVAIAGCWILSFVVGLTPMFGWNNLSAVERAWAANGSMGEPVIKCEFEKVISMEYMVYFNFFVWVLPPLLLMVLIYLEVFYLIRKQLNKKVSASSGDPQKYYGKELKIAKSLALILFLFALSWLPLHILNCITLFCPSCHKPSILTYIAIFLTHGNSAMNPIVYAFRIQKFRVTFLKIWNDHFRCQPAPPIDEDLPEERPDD

[2] = target: T2, human Adenosine A2b receptor (Homo sapiens, UniProt P29275); experiment: Adenosine receptor TR-FRET binding assay (CA200645 displacement), A2b; conditions: 30 nM CA200645, CHO cell membranes, 2 hours at room temperature
T2 construct: expressed in transfected cells; host or cells: CHO cell membranes
T2 sequence (P29275 1-332): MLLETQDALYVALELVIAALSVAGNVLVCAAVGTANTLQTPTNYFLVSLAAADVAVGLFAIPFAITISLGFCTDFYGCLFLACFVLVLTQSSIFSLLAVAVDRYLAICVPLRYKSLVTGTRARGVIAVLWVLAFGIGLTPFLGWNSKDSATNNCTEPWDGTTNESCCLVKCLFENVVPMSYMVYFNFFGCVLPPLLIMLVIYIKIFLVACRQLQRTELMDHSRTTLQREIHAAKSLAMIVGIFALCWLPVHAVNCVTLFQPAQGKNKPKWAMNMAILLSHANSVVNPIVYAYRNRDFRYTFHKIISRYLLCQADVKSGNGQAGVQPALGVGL

[3] = tested on: CD8+ T cells in human whole blood; experiment: Measurement of pCREB in CD8+ T cells in human whole blood; assay type: cell-based; conditions: T-cell, 1 h; heparinised human whole blood, rolipram, 3 μM NECA, 60 min, phospho-CREB in CD8+ T cells by FACS
Experimental: Heparinised human whole blood was pre-incubated at 37° C. with serial dilutions of A2a antagonists for 20 min. and the phosphodiesterase inhibitor rolipram to amplify the pCREB response. The adenosine receptor agonist NECA is then added at a final concentration of 3 μM and following a 60 min incubation the blood is fixed and red blood cells lysed. White blood cells are isolated, permeabilized and stained with directly conjugated fluorescent antibodies to phospho-CREB (Alexa Fluor 488) and CD8 (Alexa Fluor 647) and the level of phospho-CREB in CD8+ T cells is measured by FACS using a BD Accuri C6 Flow Cytometer.

[4] = target: T3, human Adenosine A3 receptor (Homo sapiens, UniProt P0DMS8); experiment: Adenosine receptor TR-FRET binding assay (CA200645 displacement), A3
T3 sequence (P0DMS8 1-318): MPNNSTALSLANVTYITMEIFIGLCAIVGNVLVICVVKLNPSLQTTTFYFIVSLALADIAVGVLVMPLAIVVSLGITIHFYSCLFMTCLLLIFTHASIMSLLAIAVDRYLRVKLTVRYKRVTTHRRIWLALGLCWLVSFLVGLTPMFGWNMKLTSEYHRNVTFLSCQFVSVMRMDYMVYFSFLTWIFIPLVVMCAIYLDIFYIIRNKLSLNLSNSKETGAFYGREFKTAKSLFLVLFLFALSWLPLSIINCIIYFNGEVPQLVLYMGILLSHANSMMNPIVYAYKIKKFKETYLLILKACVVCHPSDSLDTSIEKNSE

[5] = target: T4, human Adenosine A2a receptor (Homo sapiens, UniProt P29274); experiment: Adenosine receptor TR-FRET binding assay (CA200645 displacement), A2a; conditions: 100 nM CA200645, CHO cell membranes, 2 hours at room temperature
T4 construct: expressed in transfected cells; host or cells: CHO cell membranes
T4 sequence (P29274 whole entry): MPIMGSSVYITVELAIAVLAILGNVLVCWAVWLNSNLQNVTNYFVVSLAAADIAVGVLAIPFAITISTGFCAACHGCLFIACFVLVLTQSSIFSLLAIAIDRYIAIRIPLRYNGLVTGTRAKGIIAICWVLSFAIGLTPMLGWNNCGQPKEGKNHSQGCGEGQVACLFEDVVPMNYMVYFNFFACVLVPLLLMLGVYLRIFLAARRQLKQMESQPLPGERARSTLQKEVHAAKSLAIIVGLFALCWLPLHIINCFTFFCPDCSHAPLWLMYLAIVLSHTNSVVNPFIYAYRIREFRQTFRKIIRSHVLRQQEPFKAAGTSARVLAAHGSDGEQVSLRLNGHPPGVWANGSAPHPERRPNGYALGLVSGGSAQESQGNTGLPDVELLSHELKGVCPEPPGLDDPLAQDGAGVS

[6] = tested on: human PBMCs; experiment: CD3/CD28 stimulated IL-2 release NECA reversal assay in human PBMCs; assay type: cell-based; conditions: PBMC, CD3/CD28 antibody stimulated, 1 uM NECA, 24 hours, IL-2 in culture supernatant;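 also: dose-response as % inhibition where 100% equals no-NECA control wells with CD3/CD28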
Experimental: Blood is drawn from healthy volunteers using sodium citrate as the anticoagulant (0.3% final concentration). After centrifugation of the blood over Histopaque-1077, PBMCs are collected from the Histopaque/plasma interface and washed twice in PBS (300 g for 10 mins at room temp). Cells are plated at 50,000 cells/well in 150 μl RPMI/10% FCS in 96-well cell culture plates that have been precoated with 1 ug/ml CD3 antibody. 50 μl diluted compound mix is added to the cells, to obtain final concentrations of 1 ug/ml CD28 antibody, 1 uM NECA and 0.003-10 μM adenosine receptor antagonist. Assay plates are incubated for 24 hours at 37° C. in a humidified incubator. Culture supernatant is tested for IL-2 levels using the human IL-2 Tissue Culture Kit (Meso Scale Discovery).

| Structure (SMILES) | Ki [1] [nM] | Ki [2] [nM] | IC50 [3] [nM] | Ki [4] [nM] | Ki [5] [nM] | IC50 [6] [nM] |
| --- | --- | --- | --- | --- | --- | --- |
| Cc1cc(-c2c(-c3cccc(C#N)c3)nn3ccc(C(=O)N[C@H]4CNC[C@H]4O)nc23)cc(Cl)n1 [Example 7.2, 3-(2-Chloro-6-methyl-4-pyridyl)-2-(3-cyanophenyl)-N-[cis-(3S,4R)-4-hydroxypyrrolidin-3-yl]pyrazolo[1,5-a]pyrimidine-5-carboxamide] | 458 | 3 | 1070 | > 1000 | 2.6 | 70 |
| Cc1cc(-c2c(-c3cccc(C#N)c3)nn3ccc(C(=O)NCC(C)(C)O)nc23)cc(Cl)n1 [Example 5.2] | 294 | 24 | 280 | > 1000 | 0.2 | 4 |
| Cc1cc(-c2c(-c3cccc(C#N)c3)nn3ccc(C(=O)N[C@H](C)[C@H](O)CO)nc23)cc(Cl)n1 [Example 7.9, 3-(2-Chloro-6-methyl-4-pyridyl)-2-(3-cyanophenyl)-N-[(1 R,2S)-2,3-dihydroxy-1-methyl-propyl]pyrazolo[1,5-a]pyrimidine-5-carboxamide] | 160 | 2 | 70 | > 1000 | 0.6 | 4 |
| Cc1cc(-c2c(-c3cccc(C#N)c3)nn3ccc(C(=O)NCC4CCNC(=O)C4)nc23)cc(C)n1 (stereo not drawn) [Example 92.4] | 362 | 23 | 830 | > 1000 | 4.4 | 33 |
| Cc1cc(-c2c(-c3cccc(C#N)c3)nn3ccc(C(=O)NC(C)(C)C#N)nc23)cc(Cl)n1 [Example 6.21, 3-(2-Chloro-6-methyl-4-pyridyl)-N-(1-cyano-1-methyl-ethyl)-2-(3-cyanophenyl)pyrazolo[1,5-a]pyrimidine-5-carboxamide] | 252 | 17 | 430 | > 1000 | 0.1 | 1.3 |
| COc1cc(-c2c(-c3cccc(C#N)c3)nn3ccc(NCC(C)(C)O)nc23)cc(C)n1 [Example 23.1] | 147 | 143 | 1010 | > 1000 | 1.3 | 83 |
| Cc1cc(-c2c(-c3cccc(C#N)c3)nn3ccc(C(=O)NCCC(C)(C)N)nc23)cc(Cl)n1 [Example 7, N-(3-Amino-3-methyl-butyl)-3-(2-chloro-6-methyl-4-pyridyl)-2-(3-cyanophenyl)pyrazolo[1,5-a]pyrimidine-5-carboxamide] | 143 | 5 | 280 | > 1000 | 0.4 | 34 |
| Cc1cc(-c2c(-c3cccc(C#N)c3)nn3ccc(C(N)=O)nc23)cc(Cl)n1 [Example 5.6] | 303 | 16 | 8540 | > 1000 | 4.6 | 16 |
| Cc1cc(-c2c(-c3cccc(C#N)c3)nn3ccc(C(=O)N[C@H]4C[C@H](O)C4)nc23)cc(Cl)n1 [Example 6.19, 3-(2-Chloro-6-methyl-4-pyridyl)-2-(3-cyanophenyl)-N-(trans-3-hydroxycyclobutyl)pyrazolo[1,5-a]pyrimidine-5-carboxamide] | 456 | 22 | 470 | > 1000 | 0.3 | 26 |
| Cc1cc(-c2c(-c3cccc(C#N)c3)nn3ccc(N[C@@H]4COC[C@@H]4O)nc23)cc(Cl)n1 [Example 2.16] | 232 | 4 | 390 | > 1000 | 2.1 | 7 |

These reach a lower Ki [1]. Values come first.

| Ki [1] [nM] | Ki [2] [nM] | IC50 [3] [nM] | Ki [4] [nM] | Ki [5] [nM] | Structure (SMILES) | IC50 [6] [nM] |
| --- | --- | --- | --- | --- | --- | --- |
| 81 | 7 | 530 | 2050 | 1.2 | Cc1cc(-c2c(-c3cccc(C#N)c3)nn3ccc(NC(=O)CC(C)(C)O)nc23)cc(Cl)n1 [Example 94.2, N-[3-(2-chloro-6-methyl-4-pyridyl)-2-(3-cyanophenyl)pyrazolo[1,5-a]pyrimidin-5-yl]-3-hydroxy-3-methyl-butanamide] | 20 |
| 79 | 13 | 150 | > 1000 | 1.7 | Cc1cc(-c2c(-c3cccc(C#N)c3)nn3ccc(NC(=O)CC(C)(C)O)nc23)cc(C)n1 [Example 94.4, N-[2-(3-Cyanophenyl)-3-(2,6-dimethyl-4-pyridyl)pyrazolo[1,5-a]pyrimidin-5-yl]-3-hydroxy-3-methyl-butanamide] | 14 |
| 47 | 6 | 80 | 860 | 0.1 | Cc1cc(-c2c(-c3cccc(C#N)c3)nn3ccc(C(=O)NCC(C)(C)O)nc23)cc(C(F)(F)F)n1 [Example 12.9, 2-(3-Cyanophenyl)-N-(2-hydroxy-2-methyl-propyl)-3-[2-methyl-6-(trifluoromethyl)-4-pyridyl]pyrazolo[1,5-a]pyrimidine-5-carboxamide] | 2 |
| 32 | 34 | 2030 | > 1000 | 1.2 | Cc1cc(-c2c(-c3cccc(C#N)c3)nn3ccc(N[C@@H]4CCCNC4)nc23)cc(Cl)n1 [Example 4.2] | 54 |
| 20 | 4 | 100 | 1410 | 0.1 | Cc1cc(-c2c(-c3cccc(C#N)c3)nn3ccc(C(=O)N[C@@H](C)[C@H](O)CO)nc23)cc(Cl)n1 [Example 7.19, 3-(2-Chloro-6-methyl-4-pyridyl)-2-(3-cyanophenyl)-N-[(1S,2S)-2,3-dihydroxy-1-methyl-propyl]pyrazolo[1,5-a]pyrimidine-5-carboxamide] | 4 |
| 53 | 2 | 2820 | > 1000 | 0.7 | CCN1CCC(Nc2ccn3nc(-c4cccc(C#N)c4)c(-c4cc(C)nc(Cl)c4)c3n2)CC1 [Example 2.4] | 32 |
| 74 | 1 | 750 | > 1000 | 0.6 | Cc1cc(-c2c(-c3cccc(C#N)c3)nn3ccc(NC[C@@H](C)O)nc23)cc(Cl)n1 [Example 3, 3-[3-(2-Chloro-6-methyl-4-pyridyl)-5-[[(2R)-2-hydroxypropyl]amino]pyrazolo[1,5-a]pyrimidin-2-yl]benzonitrile] | 17 |
| 61 | 5 | 100 | 1910 | 0.1 | Cc1cc(-c2c(-c3cccc(C#N)c3)nn3ccc(C(=O)NC(C)(C)CO)nc23)cc(Cl)n1 [Example 6.22, 3-(2-Chloro-6-methyl-4-pyridyl)-2-(3-cyanophenyl)-N-(2-hydroxy-1,1-dimethyl-ethyl)pyrazolo[1,5-a]pyrimidine-5-carboxamide] | 2.5 |
| 87 | 22 | 4190 | 2330 | 1.5 | Cc1cc(-c2c(-c3cccc(C#N)c3)nn3ccc(N4CC5CCC(C4)O5)nc23)cc(Cl)n1 [Example 2.12] | 32 |
